Results taken from patent US20090142363A1, “CYTOTOXIC T-CELL EPITOPE PEPTIDE AND USE THEREOF” (priority 2005, published 2009).
No end group written: not given here.

System: CTL line induced by TYF (PBMCs from ID*24-8)
Experiment: Cross-reactivity of the TYF-induced CTL line to the subgroup C-specific CTL epitope
Type: cell-based, human
Description: As shown in FIG. 11-4, there are amino acid mutations at the fourth and sixth positions in TYF identified in the present invention as compared to the subgroup C-specific CTL epitopes. Thus, the cross-reactivity to subgroup C-specific CTL epitope ([…] (SEQ ID NO: 14); mutated amino acids are underlined) (Leen A M, Sili U, Vanin E F, Jewell A M, Xie W, Vignali D, Piedra P A, Brenner M K, Rooney C M. Conserved CTL epitopes on the adenovirus hexon protein expand subgroup cross-reactive and subgroup-specific CD8+ T cells. Blood. 104:2432-2440 (2004)) was examined using a CTL line induced by TYF.
PBMCs prepared from ID*24-8 were stimulated with TYF for 13 days, and then restimulated with TYF or […] (SEQ ID NO: 14) to examine whether the CTL line produces IFNγ.

## TYFNLGNKF [TYF]
  cross-reactivity to subgroup C: no cross-reactivity
PBMCs from ID*24-8 stimulated with TYF for 13 days
  IFNγ production of the CTL line induced by TYF on restimulation with the named peptide: produced IFNγ in a TYF-specific manner
PBMCs from ID*24-8 stimulated with TYF for 13 days, restimulated with the named peptide
  CD8-positive and TYF-Tet-positive cells: 1.22%
